The text below walks through data of publication PMC11435438, “Cyclin-Dependent Kinase 8 Represents a Positive Regulator of Cytomegalovirus Replication and a Novel Host Target for Antiviral Strategies” (Pharmaceutics, 2024).

Read-outs that look alike come from different tables or passages of the source.

One data set relates to mock-infected HFFs. The conditions noted are these: cited from earlier work.
The subject of data set [1] is HCMV AD169-GFP. The arrangement: method as in PMID 35269635. The conditions noted are these: GFP-based replication assay in HFFs, mean ± SD; cited from earlier work.
Data set [2] has as its system HCMV AD169-GFP. In words: microbe, parasite or virus in culture. The data set is classed as cell-based, human cytomegalovirus. To be noted: ratio CC50/EC50; HCMV AD169-GFP, HFFs. As for the experimental part: (i.e., 1 × TCID25/7d). Immediately after virus adsorption, the cells were treated with antiviral compounds or solvent control (DMSO). Infections were performed in biological quadruplicates, or as indicated for individual experiments. The cells were fixed by the addition of 150 µL 10% formalin/well 7 d p.i. (Merlin-GFP 14 d p.i.), and washed with PBS. For GFP or YFP quantitation, the Victor X4 microplate reader (PerkinElmer, Waltham, MA, USA) was primarily used, or as a very sensitive alternative, the ImageXpress® Pico device (Molecular Devices LLC, San Jose, CA, USA). Mean EC50 values of antiviral efficacy were calculated on the basis of three experimental replicates or as indicated (measurement of fluorescence values in quadruplicate), and percentage values were provided relative to the solvent control (DMSO).

Data set [3] has as its system HCMV core NEC pUL50-pUL53. In words: Nuclear rim localization of viral core NEC pUL50-pUL53 (IF, confocal imaging). The data set is classed as cell-based, human cytomegalovirus. The conditions noted are these: 0.5 µM MBV, 5 nM CCT, 2 nM MSC, 0.7 nM BI; HFFs, AD169-UL50-HA MOI 0.05, 7 d p.i. As for the experimental part: In order to investigate viral protein expression and localization, 3 × 10^5 HFFs were seeded in 6-well plates one day prior to infection with HCMV AD169-UL50-HA (MOI 0.05). After 90 min of viral absorption, cells were treated with 0.5 µM MBV, 5 nM CCT, 2 nM MSC or 0.7 nM BI-1347. The infected cells were fixed at 7 d p.i., before indirect immunofluorescence staining was performed for viral IE1, pUL50, and pUL53, and signals were evaluated by confocal laser-scanning microscopy (Leica Microsystems, TCS SP5, Wetzlar, Germany). The counterstaining of the nuclei was performed with DAPI.

Where [4] appears, read: mock-infected HFFs, Neutral Red assay, mean ± SD.

`CC(C)c1cnn2c(NCc3ccccc3-n3cccn3)nc(OC3CCCNC3)nc12` (stereo not drawn) [LDC4297]: the CC50 with mock-infected HFFs was greater than 10000 nM. The EC50 (as a rule, the midpoint of the concentration-response curve) in the data set on HCMV AD169-GFP [1] was 9 ± 2 nM.

As for `CC(C)Nc1nc2cc(Cl)c(Cl)cc2n1[C@H]1O[C@@H](CO)[C@H](O)[C@@H]1O` [MBV, maribavir], the “SI (selectivity index)” value in the data set with HCMV AD169-GFP [2] is reported as greater than 250. The CC50 with mock-infected HFFs (setting [4]) is greater than 100000 nM. Also, the EC50 in the data set with HCMV AD169-GFP [1] was 350 ± 420 nM. The “nuclear rim localization of core NEC pUL50-pUL53” value in data set [3] is “clear disruption of the smooth rim”.

Regarding `Cc1c(Br)c(Br)c2c3c1nc(N1CCNCC1)n3CCC2` [SEL120], the “SI (selectivity index)” value with HCMV AD169-GFP [2] worked out at 75. In the data set with mock-infected HFFs (setting [4]), the CC50 was 5900 ± 3850 nM. Moreover, the EC50 with HCMV AD169-GFP [1] was 79 ± 1 nM.
